Drawing on PubChem BioAssay (NCI), this text covers TGI for eight molecules.

SMILES strings stand for the structures.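 In this assay, cells in 96-well plates receive the compound at five concentrations for 48 hours. Endpoints are linearly interpolated between the surrounding concentrations. At the TGI there is no net growth.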

Among the test systems are NCI-H23 lung; SNB-19 CNS; SN12C renal; U251 CNS; T-47D breast; SK-MEL-5 melanoma; RPMI-8226 leukemia; SK-MEL-28 melanoma; MOLT-4 leukemia; HCT-116 colon; NCI/ADR-RES ovarian; NCI-H226 lung; PC-3 prostate; OVCAR-5 ovarian; RXF 393 renal; OVCAR-3 ovarian; NCI-H522 lung; HOP-92 NSCLC.
Assay in all cases: NCI tumour cell line growth inhibition, 48 h

Regarding `CCOC(=O)C(N)CSC(=O)NC` (stereo unspecified), the TGI in the assay on NCI-H23 lung came to 469 µM; in the assay on SNB-19 CNS, 600 µM; with SN12C renal it was 213 µM; with U251 CNS, 347 µM; with T-47D breast, 773 µM; in the assay on SK-MEL-5 melanoma, 393 µM. In addition, the TGI is 214 µM in the assay with RPMI-8226 leukemia; 440 µM in the assay on SK-MEL-28 melanoma; 215 µM with MOLT-4 leukemia; 321 µM with HCT-116 colon; 362 µM in the assay with NCI/ADR-RES ovarian; 681 µM in the assay on NCI-H226 lung. Also, the TGI in the assay on PC-3 prostate is 455 µM; in the assay on OVCAR-5 ovarian, 689 µM; with RXF 393 renal it was 337 µM; in the assay with OVCAR-3 ovarian, 290 µM; in the assay on NCI-H522 lung it was 472 µM; with HOP-92 NSCLC, 341 µM.

Regarding `O=C(c1ccccc1)c1c(-c2ccccc2)[nH]n(-c2ccc([N+](=O)[O-])cc2)c(=O)c1=O`, the TGI in the assay on NCI-H23 lung, in the assay on SNB-19 CNS, in the assay with SN12C renal, with U251 CNS, with T-47D breast and in the assay with SK-MEL-5 melanoma was more than 100 µM in each case. Moreover, the TGI in the assay on RPMI-8226 leukemia, in the assay with SK-MEL-28 melanoma, in the assay on MOLT-4 leukemia, with HCT-116 colon, with NCI/ADR-RES ovarian and with NCI-H226 lung was more than 100 µM throughout. Moreover, the TGI with PC-3 prostate was more than 100 µM; in the assay on OVCAR-5 ovarian it was more than 100 µM; in the assay on RXF 393 renal, more than 100 µM; with OVCAR-3 ovarian, more than 100 µM; with NCI-H522 lung it was 73.7 µM; in the assay on HOP-92 NSCLC, 50.9 µM.

As to `N#CSc1nc[nH]c1C(N)=O`, the TGI was more than 100 µM with NCI-H23 lung; more than 100 µM with SNB-19 CNS; 90 µM in the assay on SN12C renal; more than 100 µM in the assay on U251 CNS; more than 100 µM in the assay on T-47D breast; more than 100 µM in the assay with SK-MEL-5 melanoma. Besides, the TGI in the assay with RPMI-8226 leukemia was 44.7 µM; in the assay on SK-MEL-28 melanoma, more than 100 µM; in the assay with HCT-116 colon it was more than 100 µM; in the assay with NCI/ADR-RES ovarian it was more than 100 µM; in the assay on NCI-H226 lung, more than 100 µM; in the assay on PC-3 prostate it was more than 100 µM. Moreover, the TGI with OVCAR-5 ovarian, in the assay with RXF 393 renal, in the assay on OVCAR-3 ovarian, in the assay on NCI-H522 lung and in the assay on HOP-92 NSCLC was more than 100 µM each time.

On to `Clc1ccc(Cl)c(Nc2ccnc(SCc3ccccc3)n2)c1`, for which the TGI in the assay with NCI-H23 lung, in the assay on SNB-19 CNS, in the assay with SN12C renal, in the assay on U251 CNS, in the assay with T-47D breast and in the assay with SK-MEL-5 melanoma was more than 100 µM throughout. Besides, the TGI in the assay with RPMI-8226 leukemia, in the assay with SK-MEL-28 melanoma, with MOLT-4 leukemia, in the assay on HCT-116 colon, in the assay on NCI/ADR-RES ovarian and in the assay on PC-3 prostate was more than 100 µM in each case. Also, the TGI with OVCAR-5 ovarian is more than 100 µM; in the assay with RXF 393 renal, 79.4 µM; in the assay on OVCAR-3 ovarian, more than 100 µM; with NCI-H522 lung, more than 100 µM; in the assay on HOP-92 NSCLC, more than 100 µM.

As for `CO[C@H]1[C@@H](O)[C@@H](C)O[C@@H](O[C@H]2CC[C@@]3(C)[C@H](CC[C@@H]4[C@@H]3CC[C@]3(C)[C@@H](C5=CC(=O)OC5)[C@@H](OC(C)=O)C[C@]43O)C2)[C@@H]1O`, the TGI in the assay on NCI-H23 lung is 0.139 µM; in the assay on SNB-19 CNS, 0.507 µM; in the assay on U251 CNS, 0.186 µM; with T-47D breast, 0.435 µM; with SK-MEL-5 melanoma, 0.201 µM; with RPMI-8226 leukemia it was more than 16.2 µM. Besides, the TGI in the assay on SK-MEL-28 melanoma was more than 50 µM; in the assay on HCT-116 colon it was 0.109 µM; with NCI/ADR-RES ovarian, 0.175 µM; with NCI-H226 lung, 0.411 µM; with PC-3 prostate, 0.113 µM; with OVCAR-5 ovarian, 0.214 µM. In addition, the TGI was 0.0523 µM in the assay on RXF 393 renal, 0.0905 µM in the assay with OVCAR-3 ovarian, 0.0368 µM with NCI-H522 lung and 0.577 µM in the assay on HOP-92 NSCLC.

Turning to `CCN(CC)c1ccc2cc(-c3nnc(-c4ccccc4)o3)c(=O)oc2c1`, the TGI with NCI-H23 lung was more than 100 µM; in the assay on SNB-19 CNS it was more than 80.9 µM; in the assay with SN12C renal, more than 100 µM; with U251 CNS, more than 100 µM; in the assay with T-47D breast it was more than 71.4 µM; in the assay on SK-MEL-5 melanoma, more than 100 µM. Besides, the TGI in the assay on RPMI-8226 leukemia is more than 100 µM; with SK-MEL-28 melanoma, more than 100 µM; with HCT-116 colon, more than 100 µM; in the assay with NCI/ADR-RES ovarian, more than 100 µM; with NCI-H226 lung, more than 70.7 µM; in the assay with PC-3 prostate it was more than 100 µM. The TGI is more than 100 µM in the assay with OVCAR-5 ovarian; more than 52.5 µM with RXF 393 renal; 37.1 µM in the assay on OVCAR-3 ovarian; more than 100 µM in the assay on NCI-H522 lung; more than 100 µM with HOP-92 NSCLC.

`O=C1c2cc3c(cc2CC12Cc1cc4c(cc1C2=O)CCC4)CCCC3` (stereo unspecified): the TGI in the assay on NCI-H23 lung, in the assay with SNB-19 CNS, in the assay with U251 CNS, in the assay on T-47D breast, in the assay on SK-MEL-5 melanoma and in the assay on RPMI-8226 leukemia was more than 100 µM each time. In addition, the TGI in the assay on SK-MEL-28 melanoma, in the assay with MOLT-4 leukemia, in the assay with HCT-116 colon, in the assay with NCI/ADR-RES ovarian, with PC-3 prostate and with OVCAR-5 ovarian was more than 100 µM throughout. The TGI in the assay on RXF 393 renal, in the assay with OVCAR-3 ovarian, with NCI-H522 lung and with HOP-92 NSCLC was more than 100 µM in each case.

As to `CCN(CC)CCn1nc(N)c2nc3cc(Cl)ccc3nc21`, the TGI with NCI-H23 lung is more than 100 µM; in the assay with SNB-19 CNS it was more than 100 µM; in the assay on SN12C renal, more than 100 µM; in the assay on U251 CNS, more than 100 µM; with T-47D breast it was more than 100 µM; in the assay on SK-MEL-5 melanoma, 74.1 µM. For the same molecule, the TGI in the assay on RPMI-8226 leukemia, in the assay with SK-MEL-28 melanoma, in the assay with MOLT-4 leukemia, in the assay with HCT-116 colon, in the assay with NCI/ADR-RES ovarian and with NCI-H226 lung was more than 100 µM throughout. The TGI in the assay on PC-3 prostate, with OVCAR-5 ovarian, in the assay on RXF 393 renal, with NCI-H522 lung and in the assay on HOP-92 NSCLC was more than 100 µM throughout.
